Measured values published in ChEMBL document CHEMBL6103552, “Identification of peptide-based hepatitis B virus capsid inhibitors based on the viral core protein” (Bioorg Med Chem Lett, 2025).
Calls of active or inactive are those of the source. Residues, ends and D or L forms follow the SMILES beside them.

Experiments:
Assay type in all cases: subcellular
[1] = target: Core antigen (Hepatitis B virus) (UniProt Q03732); test: Inhibition of Hepatitis B virus capsid formation at 100 uM treated during cell-free wild type HBV Cp synthesis using wheat germ lysates and HBV Cp RNA by Native capsid assay based western blot analysis
Sequence of Core antigen (Hepatitis B virus) (Q03732 as listed by the source): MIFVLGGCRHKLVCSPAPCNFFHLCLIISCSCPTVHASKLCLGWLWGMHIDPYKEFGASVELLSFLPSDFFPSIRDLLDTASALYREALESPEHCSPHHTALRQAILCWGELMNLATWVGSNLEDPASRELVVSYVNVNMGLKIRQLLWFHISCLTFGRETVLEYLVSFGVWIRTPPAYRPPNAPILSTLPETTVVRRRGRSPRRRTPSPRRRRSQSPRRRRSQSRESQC

Core antigen = Core antigen (Hepatitis B virus, UniProt Q03732); test: Inhibition of Hepatitis B virus capsid formation treated during cell-free wild type HBV Cp synthesis using wheat germ lysates and HBV Cp RNA by Denatured capsid assay based western blot analysis
Sequence of Core antigen (Q03732 whole entry): as the sequence (Q03732 as listed by the source) above

[2] = target: Core antigen (Hepatitis B virus) (UniProt Q03732); test: Inhibition of Hepatitis B virus capsid formation at 10 uM treated during cell-free HBV Cp T33N mutant synthesis using wheat germ lysates and HBV Cp RNA by Denatured capsid assay based western blot analysis
[3] = target: Core antigen (Hepatitis B virus) (UniProt Q03732); test: Inhibition of Hepatitis B virus capsid formation at 100 uM treated during cell-free HBV Cp T33N mutant synthesis using wheat germ lysates and HBV Cp RNA by Denatured capsid assay based western blot analysis
[4] = target: Core antigen (Hepatitis B virus) (UniProt Q03732); test: Inhibition of Hepatitis B virus capsid formation at 3 uM treated during cell-free wild type HBV Cp synthesis using wheat germ lysates and HBV Cp RNA by Native capsid assay based western blot analysis

CC[C@H](C)[C@H](NC(=O)[C@H](Cc1c[nH]cn1)NC(=O)[C@H](Cc1ccccc1)NC(=O)[C@H](Cc1c[nH]c2ccccc12)NC(=O)[C@H](CC(C)C)NC(=O)[C@H](CC(C)C)NC(=O)[C@H](CCC(N)=O)NC(=O)[C@H](CCCNC(=N)N)NC(=O)[C@H](Cc1ccccc1)NC(=O)[C@H](CCCCN)NC(=O)[C@H](CC(C)C)NC(=O)CNC(=O)[C@H](CCSC)NC(=O)[C@H](CC(N)=O)NC(=O)[C@@H](NC(C)=O)C(C)C)C(N)=O
inhibition [1]: Active; Significantly Inhibited Hbv-Capsid Formation Of 72 Peptides Tested | IC50 (Core antigen): 97.8 µM | inhibition [2]: Active; Same Efficacy As Gls4 Observed | inhibition [3]: Active; Comparable Activity To Gls4, Positive Control

CCOC(=O)C1=C(CN2CCOCC2)NC(c2nccs2)=NC1c1ccc(F)cc1Br (stereo not drawn)
inhibition [4]: Active

CC[C@H](C)[C@H](NC(=O)[C@H](Cc1c[nH]cn1)NC(=O)[C@H](Cc1ccccc1)NC(=O)[C@H](Cc1c[nH]c2ccccc12)NC(=O)[C@H](CC(C)C)NC(=O)[C@H](CC(C)C)NC(=O)[C@H](CCC(N)=O)NC(=O)[C@H](CCCNC(=N)N)NC(=O)[C@H](Cc1ccccc1)NC(=O)[C@H](CCCCN)NC(C)=O)C(=O)N[C@@H](CO)C(=O)N[C@@H](CS)C(=O)N[C@@H](CC(C)C)C(=O)N[C@H](C(=O)N[C@@H](Cc1ccccc1)C(N)=O)[C@@H](C)O (Ac-KFRQLLWFHISCLTF-NH2)
inhibition [1]: Active; Significantly Inhibited Hbv-Capsid Formation Of 72 Peptides Tested | IC50 (Core antigen): 43.7 µM | inhibition [2]: Active; Greater Efficacy Compared To Gls4 Observed | inhibition [3]: Active; Comparable Activity To Gls4, Positive Control

N=C(N)NCCC[C@H](NC(=O)[C@@H]1CCCN1)C(=O)N[C@@H](CCCNC(=N)N)C(=O)N[C@@H](CCCNC(=N)N)C(=O)N[C@@H](CCCNC(=N)N)C(=O)N[C@@H](CO)C(=O)N[C@@H](CCC(N)=O)C(=O)N[C@@H](CO)C(=O)N[C@@H](CCCNC(=N)N)C(=O)N[C@@H](CCC(=O)O)C(=O)N[C@@H](CO)C(=O)N[C@@H](CCC(N)=O)C(=O)N[C@@H](CS)C(N)=O (H-PRRRRSQSRESQC-NH2)
inhibition [1]: inactive

C[C@@H](O)[C@H](NC(=O)[C@H](CCCNC(=N)N)NC(=O)[C@H](CCCNC(=N)N)NC(=O)[C@H](CCCNC(=N)N)NC(=O)[C@@H]1CCCN1)C(=O)N1CCC[C@H]1C(=O)N[C@@H](CO)C(=O)N1CCC[C@H]1C(=O)N[C@@H](CCCNC(=N)N)C(=O)N[C@@H](CCCNC(=N)N)C(=O)N[C@@H](CCCNC(=N)N)C(=O)N[C@@H](CCCNC(=N)N)C(=O)N[C@@H](CO)C(=O)N[C@@H](CCC(N)=O)C(=O)N[C@@H](CO)C(N)=O (H-PRRRTPSPRRRRSQS-NH2)
inhibition [1]: inactive

N=C(N)NCCC[C@H](NC(=O)[C@H](CCCNC(=N)N)NC(=O)[C@H](CCCNC(=N)N)NC(=O)[C@H](CCCNC(=N)N)NC(=O)[C@@H]1CCCN1C(=O)[C@H](CO)NC(=O)[C@H](CCC(N)=O)NC(=O)[C@H](CO)NC(=O)[C@H](CCCNC(=N)N)NC(=O)[C@H](CCCNC(=N)N)NC(=O)[C@H](CCCNC(=N)N)NC(=O)[C@H](CCCNC(=N)N)NC(=O)[C@@H]1CCCN1C(=O)[C@H](CO)NC(=O)[C@@H]1CCCN1)C(N)=O (H-PSPRRRRSQSPRRRR-NH2)
inhibition [1]: inactive

N=C(N)NCCC[C@H](NC(=O)[C@H](CO)NC(=O)[C@H](CCC(N)=O)NC(=O)[C@H](CO)NC(=O)[C@H](CCCNC(=N)N)NC(=O)[C@H](CCCNC(=N)N)NC(=O)[C@H](CCCNC(=N)N)NC(=O)[C@H](CCCNC(=N)N)NC(=O)[C@@H]1CCCN1C(=O)[C@H](CO)NC(=O)[C@@H](N)CCC(N)=O)C(=O)N[C@@H](CCC(=O)O)C(=O)N[C@@H](CO)C(=O)N[C@@H](CCC(N)=O)C(=O)N[C@@H](CS)C(N)=O (H-QSPRRRRSQSRESQC-NH2)
inhibition [1]: inactive

C[C@@H](O)[C@H](NC(=O)[C@H](CCCNC(=N)N)NC(=O)[C@H](CCCNC(=N)N)NC(=O)[C@H](CCCNC(=N)N)NC(=O)[C@@H]1CCCN1C(=O)[C@H](CO)NC(=O)[C@H](CCCNC(=N)N)NC(=O)CNC(=O)[C@H](CCCNC(=N)N)NC(=O)[C@@H](N)CCCNC(=N)N)C(=O)N1CCC[C@H]1C(=O)N[C@@H](CO)C(=O)N1CCC[C@H]1C(=O)N[C@@H](CCCNC(=N)N)C(=O)N[C@@H](CCCNC(=N)N)C(N)=O (H-RRGRSPRRRTPSPRR-NH2)
inhibition [1]: inactive

N=C(N)NCCC[C@H](NC(=O)[C@H](CO)NC(=O)[C@H](CCC(N)=O)NC(=O)[C@H](CO)NC(=O)[C@H](CCCNC(=N)N)NC(=O)[C@H](CCCNC(=N)N)NC(=O)[C@H](CCCNC(=N)N)NC(=O)[C@H](CCCNC(=N)N)NC(=O)[C@@H]1CCCN1C(=O)[C@H](CO)NC(=O)[C@H](CCC(N)=O)NC(=O)[C@H](CO)NC(=O)[C@H](CCCNC(=N)N)NC(=O)[C@@H](N)CCCNC(=N)N)C(=O)N[C@@H](CCC(=O)O)C(N)=O (H-RRSQSPRRRRSQSRE-NH2)
inhibition [1]: inactive

CC(C)C[C@H](NC(=O)[C@H](Cc1ccc(O)cc1)NC(=O)[C@H](CCC(=O)O)NC(=O)[C@H](CC(C)C)NC(=O)[C@@H](NC(=O)[C@@H](NC(=O)[C@H](CCC(=O)O)NC(=O)[C@H](CCCNC(=N)N)NC(=O)CNC(=O)[C@H](Cc1ccccc1)NC(=O)[C@@H](NC(=O)[C@H](CC(C)C)NC(=O)[C@H](CS)NC(=O)[C@@H](N)CO)[C@@H](C)O)[C@@H](C)O)C(C)C)C(=O)N[C@H](C(N)=O)C(C)C (H-SCLTFGRETVLEYLV-NH2)
inhibition [1]: inactive

CC(C)[C@H](NC(=O)[C@@H](NC(=O)[C@@H](NC(=O)[C@@H](N)[C@@H](C)O)[C@@H](C)O)C(C)C)C(=O)N[C@@H](CCCNC(=N)N)C(=O)N[C@@H](CCCNC(=N)N)C(=O)N[C@@H](CCCNC(=N)N)C(=O)NCC(=O)N[C@@H](CCCNC(=N)N)C(=O)N[C@@H](CO)C(=O)N1CCC[C@H]1C(=O)N[C@@H](CCCNC(=N)N)C(=O)N[C@@H](CCCNC(=N)N)C(=O)N[C@@H](CCCNC(=N)N)C(=O)N[C@H](C(N)=O)[C@@H](C)O (H-TTVVRRRGRSPRRRT-NH2)
inhibition [1]: inactive

CSCC[C@H](NC(=O)[C@H](CC(N)=O)NC(=O)[C@@H](NC(=O)[C@H](CC(N)=O)NC(=O)[C@@H](NC(=O)[C@H](Cc1ccc(O)cc1)NC(=O)[C@H](CO)NC(=O)[C@@H](N)C(C)C)C(C)C)C(C)C)C(=O)NCC(=O)N[C@@H](CC(C)C)C(=O)N[C@@H](CCCCN)C(=O)N[C@@H](Cc1ccccc1)C(=O)N[C@@H](CCCNC(=N)N)C(=O)N[C@@H](CCC(N)=O)C(=O)N[C@@H](CC(C)C)C(N)=O (H-VSYVNVNMGLKFRQL-NH2)
inhibition [1]: inactive
